From EP4778922A1, “BICYCLIC COMPOUND, AND PREPARATION METHOD THEREFOR AND PHARMACEUTICAL USE THEREOF” (Shanghai Jeyou Pharmaceutical Co., Ltd., priority 2023, dated 2025)

How the values were obtained:
LNCaP cells = assay: Cell proliferation inhibition assay in LNCaP cells (0.2 nM DHT, CellTiter-Glo, 7 days); type: cell-based, human; conditions: Homo sapiens, 168 h
Procedure: • 1. The human prostate cancer cell lines 22RV1 and LNCaP were purchased from ATCC. […] The cell concentration was adjusted to an appropriate concentration (determined based on the results of cell density optimization experiments), and the cells were seeded into a 96-well plate. A 100 µL cell suspension was added, resulting in 3000 cells per well. […] On the second day, for 22Rv1 cells, test compounds at different concentrations were added, and the cells were incubated at 37°C in a 5% CO2 incubator for 7 days; for LNCaP cells, test compounds at different concentrations were added first, and after 1 hour of treatment, 0.2 nM DHT was added. The cells were then incubated at 37°C in a 5% CO2 incubator for 7 days. • 4. After the incubation period, a volume of CellTiter-Glo detection reagent equal to the volume of the culture medium was added to each well. The plate was shaken and mixed thoroughly for 5 minutes, then incubated at room temperature for 10 minutes. Readings were taken using a PerkinElmer EnVision microplate reader. • 5.
The IC50 curve was fitted and the IC50 value was calculated using the software GraphPad Prism 8 with the calculation formula XY-analysis/Nonlinear regression (curve fit)/Dose response-Inhibition/log (inhibitor) vs. response-Variable slope (four parameters).

22RV1 cells = assay: Cell proliferation inhibition assay in 22RV1 cells (CellTiter-Glo, 7 days); type: cell-based, human; conditions: Homo sapiens
In short: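 22RV1 cells received compound alone; LNCaP cells were stimulated with 0.2 nM DHT added 1 h after compound. Seeding was 3000 cells/well.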

[1] = Mouse pharmacokinetic test; type: in vivo, ICR mice; conditions: plasma, po, 30 mg/kg, PO-30mpk; for Tmax: read-out: Tmax
In short: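 Male naive ICR mice (25–30 g, n=3 per route) received a single intravenous or oral dose, with feeding resumed 4 h post-dose. Blood was centrifuged at 4°C, and plasma was stored at -80°C until analysis.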

Structure (SMILES)	IC50 (LNCaP cells) [nM]	IC50 (22RV1 cells; 168 h) [nM]	other results
CC(C)(c1ccc(-c2ccc(OCc3ccnc(N=S4(=O)CCOCC4)n3)cn2)cc1)c1cc(Cl)c(OCCCl)c(C#N)c1 [Compound 62]	–	–	IC50 (LNCaP cells; LNCaP): 830 nM; IC50 (22RV1 cells; 22Rv1, 168 h): 260 nM; AUC(0-inf) [1]: 188 µg·h/mL; Cmax [1]: 19900 ng/mL; half-life [1]: 120 min; Tmax [1]: 2 h
Cc1cc(OCc2ccnc(P(C)(C)=O)n2)ccc1-c1ccc(C(C)(C)c2cc(Cl)c(OCCCl)c(C#N)c2)cc1 [Compound 119]	–	–	IC50 (LNCaP cells; LNCaP): 940 nM; IC50 (22RV1 cells; 22Rv1, 168 h): 740 nM; AUC(0-inf) [1]: 333 µg·h/mL; Cmax [1]: 17400 ng/mL; half-life [1]: 708 min; Tmax [1]: 4.7 h
CC(C)(O)CN1CCS(=O)(=Nc2nccc(COc3ccc(-c4ccc(C(C)(C)c5cc(Cl)c(OCCCl)c(C#N)c5)cc4)cc3)n2)CC1 [Compound 254]	440	160	–
CC(C)(c1ccc(-c2ccc(OCC3CCC4(CC3)CN(c3ccnc(P(C)(C)=O)n3)C4)cc2)cc1)c1cc(Cl)c(OCCCl)c(C#N)c1 [Compound 260]	620	170	–
CC(C)(c1ccc(-c2ccc(OCc3ccnc(N=S4(=O)CCN(CC(F)F)CC4)n3)nc2)cc1)c1cc(Cl)c(OCCCl)c(C#N)c1 [Compound 264]	980	250	–
CC(C)(c1ccc(-c2ccc(OCc3ccnc(N=S4(=O)CCC(F)(F)CC4)n3)cc2)cc1)c1cc(Cl)c(OCCCl)c(C#N)c1 [Compound 288]	550	74	–
CC(C)(c1ccc(-c2ccc(OCCN3CCS(=O)(=O)CC3)cc2)cc1)c1cc(Cl)c(OCCCl)c(C#N)c1 [Compound 298]	760	190	–
CC(C)(c1ccc(-c2ccc(OCc3ccc(-c4cnc(N5CC6(C5)CS(=N)(=O)C6)nc4)cc3)cc2)cc1)c1cc(Cl)c(OCCCl)c(C#N)c1 [Compound 317]	270	1040	–
CC(C)(c1ccc(-c2cnc(OCC34CC(c5cnc(P(C)(C)=O)nc5)(C3)C4)cn2)cc1)c1cc(Cl)c(OCCCl)c(C#N)c1 [Compound 322]	120	1050	–
CC(C)(c1ccc(-c2ccc(OCC3CCC(CN4CC5(COC5)C4)CC3)cc2)cc1)c1cc(Cl)c(OCCCl)c(C#N)c1 (stereo not drawn) [Compound 333]	680	320	–
CC(C)(c1ccc(-c2cnc(OCc3ccnc(N4CC(S(C)(=O)=O)C4)n3)nc2)cc1)c1cc(Cl)c(OCCCl)c(C#N)c1 [Compound 342]	500	860	–
CC(C)(c1ccc(-c2ccc(OCc3ccnc(N4CC(S(=N)(=O)C5CC5)C4)n3)nc2)cc1)c1cc(Cl)c(OCCCl)c(C#N)c1 (stereo not drawn) [Compound 356]	410	790	–
CC(C)(c1ccc(-c2ccc(OCc3ccnc(N4CC(S(C)(=N)=O)C4)n3)nc2)cc1)c1cc(Cl)c(OCCCl)c(C#N)c1 (stereo not drawn) [Compound 357]	–	–	IC50 (LNCaP cells; LNCaP): 440 nM; IC50 (22RV1 cells; 22Rv1, 168 h): 830 nM
CC(C)(c1ccc(-c2ccc(OCc3nccnc3P(C)(C)=O)cc2)cc1)c1cc(Cl)c(OCCCl)c(C#N)c1 [Compound 358]	240	570	–
CC(C)(c1ccc(-c2ccc(OCc3ccc(-c4ccc(P(C)(C)=O)nc4)cc3)cc2)cc1)c1cc(Cl)c(OCCCl)c(C#N)c1 [Compound 359]	74	230	–
CC(C)(c1ccc(-c2cnc(OCc3ccc(-c4cnc(P(C)(C)=O)nc4)cc3)cn2)cc1)c1cc(Cl)c(OCCCl)c(C#N)c1 [Compound 361]	400	250	–
CC1(CO)CN(c2nccc(COc3cnc(-c4ccc(C(C)(C)c5cc(Cl)c(OCCCl)c(C#N)c5)cc4)cn3)n2)C1 [Compound 365]	550	930	–
CC(C)(c1ccc(-c2cnc(OCc3ccc(-c4cnc(P(C)(C)=O)nc4)nc3)cn2)cc1)c1cc(Cl)c(OCCCl)c(C#N)c1 [Compound 373]	250	640	–
CC(C)(c1ccc(-c2cnc(OCc3ccnc(N4CC5(CCS(=N)(=O)CC5)C4)n3)cn2)cc1)c1cc(Cl)c(OCCCl)c(C#N)c1 [Compound 377]	100	380	–
CC(C)(c1ccc(-c2ccc(OCc3ccc(-c4cnc(N5CC(S(C)(=O)=O)C5)nc4)cc3)c(C#N)c2)cc1)c1cc(Cl)c(OCCCl)c(C#N)c1 [Compound 382]	410	860	–
CC(C)(c1ccc(-c2cnc(COc3ccnc(P(C)(C)=O)n3)nc2)cc1)c1cc(Cl)c(OCCCl)c(C#N)c1 [Compound 385]	220	570	–
CC(C)(c1ccc(-c2cnc(OCc3ccnc(N4CC(N=S(C)(C)=O)C4)n3)cn2)cc1)c1cc(Cl)c(OCCCl)c(C#N)c1 [Compound 388]	530	370	–

Structure (SMILES)	IC50 (LNCaP cells) [nM]	IC50 (22RV1 cells; 168 h) [nM]	other results
CC(C)(c1ccc(-c2ccc(OCc3ccc(-c4ccc(P(C)(C)=O)nn4)cc3)cc2)cc1)c1cc(Cl)c(OCCCl)c(C#N)c1 [Compound 394]	76	110	–
CC(C)(c1ccc(-c2ccc(OCc3ccc(-c4cnc(P(C)(C)=O)nc4)cn3)nc2)cc1)c1cc(Cl)c(OCCCl)c(C#N)c1 [Compound 397]	110	950	–
CC(C)(c1ccc(-c2ccc(OCc3ccc(-c4cnc(P(C)(C)=O)nc4)nc3)nc2)cc1)c1cc(Cl)c(OCCCl)c(C#N)c1 [Compound 398]	120	510	–
CC(C)(c1ccc(-c2cnc(OCc3cnc(-c4cnc(P(C)(C)=O)nc4)cn3)nc2)cc1)c1cc(Cl)c(OCCCl)c(C#N)c1 [Compound 402]	99	660	–
CC(C)(c1ccc(-c2ccc(OCc3cnc(-c4cnc(P(C)(C)=O)nc4)cn3)nc2)cc1)c1cc(Cl)c(OCCCl)c(C#N)c1 [Compound 410]	27000	880	–
CN=S(C)(=O)C1CN(c2nccc(COc3ccc(-c4ccc(C(C)(C)c5cc(Cl)c(OCCCl)c(C#N)c5)cc4)nc3)n2)C1 (stereo not drawn) [Compound 414]	360	940	–
CC(C)(c1ccc(-c2ccc(OCc3ccc(-c4cnc(P(C)(C)=O)cn4)cc3)cc2)cc1)c1cc(Cl)c(OCCCl)c(C#N)c1 [Compound 419]	130	130	–
CC(C)(c1ccc(-c2cnc(OCC34CC(c5cnc(P(C)(C)=O)nc5)(C3)C4)nc2)cc1)c1cc(Cl)c(OCCCl)c(C#N)c1 [Compound 421]	600	350	–
CC(C)(c1ccc(-c2ccc(OCc3ccnc(N4CC5(C4)CS(=N)(=O)C5)n3)cn2)cc1)c1cc(Cl)c(OCCCl)c(C#N)c1 [Compound 422]	530	690	–
CC(C)(c1ccc(-c2ncc(OCc3ccc(-c4cnc(P(C)(C)=O)cn4)cc3)cn2)cc1)c1cc(Cl)c(OCCCl)c(C#N)c1 [Compound 424]	310	660	–
CC(C)(c1ccc(-c2cnc(COc3ccnc(P(C)(C)=O)n3)cn2)cc1)c1cc(Cl)c(OCCCl)c(C#N)c1 [Compound 432]	660	840	–
CC(C)(c1ccc(-c2ccc(OCc3ccnc(N=S4(=O)CCN(CC(O)c5ccccc5)CC4)n3)cc2)cc1)c1cc(Cl)c(OCCCl)c(C#N)c1 (stereo not drawn) [Compound 435]	650	180	–
CC(=O)c1nccc(COc2ccc(-c3ccc(C(C)(C)c4cc(Cl)c(OCCCl)c(C#N)c4)cc3)cc2)n1 [Compound 440]	570	990	–
CC(C)(c1ccc(-c2ccc3cc(OCc4ccnc(P(C)(C)=O)n4)ccc3c2)cc1)c1cc(Cl)c(OCCCl)c(C#N)c1 [Compound 442]	160	380	–
CC(C)(c1ccc(-c2cnc(OCc3ccnc(N4CCC5(CC4)CS(=N)(=O)C5)n3)cn2)cc1)c1cc(Cl)c(OCCCl)c(C#N)c1 [Compound 444]	130	120	–
CC(C)(c1ccc(-c2ccc(OCC34CC(c5cnc(P(C)(C)=O)nc5)(C3)C4)nc2)cc1)c1cc(Cl)c(OCCCl)c(C#N)c1 [Compound 445]	80	130	–
CC(C)(c1cnc(-c2ccc(OCc3ccnc(N4CC(S(C)(=O)=O)C4)n3)cc2)nc1)c1cc(Cl)c(OCCCl)c(C#N)c1 [Compound 446]	140	310	–
CNS(=O)(=O)C1CN(c2nccc(COc3cnc(-c4ccc(C(C)(C)c5cc(Cl)c(OCCCl)c(C#N)c5)cc4)cn3)n2)C1 [Compound 462]	42	160	–
CC(C)(c1ccc(-c2ccc(OCc3ccnc(N4C5CCC4CC(S(C)(=O)=O)C5)n3)cc2)cc1)c1cc(Cl)c(OCCCl)c(C#N)c1 (stereo not drawn) [Compound 463]	93	88	–
CC(C)(c1cc(Cl)c(OCCCl)c(C#N)c1)c1ccc(-c2ccc(OCc3ccnc(N4CC(S(C)(=O)=O)C4)n3)cn2)cn1 [Compound 471]	430	950	–
CC(C)(c1cc(Cl)c(OCCCl)c(C#N)c1)c1ccc(-c2ccc(OCc3ccnc(N4CC(S(C)(=O)=O)C4)n3)cc2)cn1 [Compound 476]	44	170	–
CC(C)(c1cc(Cl)c(OCCCl)c(C#N)c1)c1ccc(-c2ccc(OCc3ccnc(N4CC(S(C)(=N)=O)C4)n3)cc2)cn1 (stereo not drawn) [Compound 477]	240	690	–
